Data on three molecules can be found in US11492347B2 (ENYO PHARMA, priority 2018, dated 2022).

Molecules are shown by their SMILES.

One test concerns UXF 1138. Briefly: Cytotoxicity, propidium iodide based monolayer assay. Particulars: 96 h; UXF 1138 uterine sarcoma, four days of treatment, T/C=50%; read-out: Absolute IC50. In kind it is cell-based. On the procedure: The cytotoxicity was tested for compounds of the invention on five different cell-lines, namely LXFL 1121, MAXF 401, MMXF L-636, PRXF PC-3M and UXF 1138 which are respectively lung large cell carcinoma, breast adeno carcinoma, multiple myeloma, prostate adeno carcinoma and uterine sarcoma.
A working stock solution of the test compounds was prepared in DMSO at a concentration of 33 mM or 8.25 mM, and small aliquots were stored at −20° C. On each day of an experiment, a frozen aliquot of the working stock solution was thawed and stored at room temperature prior to and during treatment.
All liquid handling steps were performed using the Tecan Freedom EVO 200 platform. First, serial 2-fold dilutions of the 33 mM DMSO working stock solution were done in DMSO. The DMSO dilutions were then diluted 1:22 into cell culture medium in an intermediate dilution plate. Finally, 10 μl taken from the intermediate dilution plate were transferred to 140 μl/well of the final assay plate. Thus, the DMSO serial dilutions were diluted 1:330 with cell culture medium, and the DMSO concentration in the assay was 0.3% v/v.
Cell lines were routinely passaged once or twice weekly and maintained in culture for up to 20 passages. Most cell lines were grown at 37° C. in a humidified atmosphere with 5% CO2 in RPMI 1640 medium (25 mM HEPES, with L-glutamine, #FG1385, Biochrom, Berlin, Germany) supplemented with 10% (v/v) fetal calf serum (Sigma, Taufkirchen, Germany) and 0.05 mg/mL gentamicin (Life Technologies, Karlsruhe, Germany).
A modified propidium iodide (PI) based monolayer assay was used to assess the anti-cancer activity of the compounds. Briefly, cells were harvested from exponential phase cultures, counted and plated in 96 well flat-bottom microtiter plates at a cell density of 4,000 to 40,000 cells/well dependent on the cell line's growth rate. The individual seeding density for each cell line ensure exponential growth conditions over the whole or at least the bigger part of the treatment period. After a 24 h recovery period, to allow the cells to resume exponential growth, 10 μl of culture medium (6 control wells/cell line/plate) or of culture medium with test compounds were added. Compounds were applied at ten concentrations in 2-fold increments in duplicates up to 25 μM or 100 μM and treatment continued for four days. After four days of treatment, cells were next washed with 200 μl PBS to remove dead cells and debris, then 200 μl of a solution containing 7 μg/ml propidium iodide (PI) and 0.1% (v/v) Triton X-100 was added. After an incubation period of 1-2 hours at room temperature, fluorescence (FU) was measured using the Enspire Multimode Plate Reader (excitation λ=530 nm, emission k=620 nm) to quantify the amount of attached viable cells.
Drug effects were expressed in terms of the percentage of the fluorescence signal, obtained by comparison of the mean signal in the treated wells with the mean signal of the untreated controls (expressed by the test-versus-control value, T/C−value [%]):
[formula] IC values reported reflect the concentration of the test compound that achieves T/C=50%. Calculation was done by 4 parameter non-linear curve fit.

For test [1], the target named is T1, CISD3 Gene Product (Miner2) (Homo sapiens, UniProt P0C7P0).
T1 sequence (P0C7P0 15-127): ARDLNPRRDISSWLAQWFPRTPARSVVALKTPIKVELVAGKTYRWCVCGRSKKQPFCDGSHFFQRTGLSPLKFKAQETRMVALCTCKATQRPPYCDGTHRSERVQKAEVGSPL
In words: Stability of Fe-S cluster binding of purified NEET protein (absorbance 458 nm). In kind it is biochemical. Particulars: for Residual cluster bound at end of experiment (Percentage Absorbance 458 nm at time zero): CISD3 gene product 20 μM, pH 6, at 180 minutes, vehicle control 11%; for Residual cluster bound at end of experiment (Percentage Absorbance 458 nm at time zero) / Time (in minutes) to achieve 50% loss of bound cluster (Absorbance 458 nm): compound 60 μM; for Time (in minutes) to achieve 50% loss of bound cluster (Absorbance 458 nm): Miner2 20 μM, pH 6, 37° C., run time 180 minutes, vehicle control 60; for Stabiliser or destabiliser of Fe-S cluster binding by CISD3 Gene Product (Miner2): time to 50% cluster loss changed by more than 25% compared to the Control sample, at the concentrations tested. The essentials:
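Purified NEET protein (20 μM) with compound (60 μM, 1:3 molar ratio) in 100 mM Bis-Tris pH 6, 100 mM NaCl, 66 μM DMSO at 37 °C; 458 nm absorbance decay read every 5 min for 500 min (NAF-1) or 180 min (mitoNEET, Miner2). Outputs: time to 50% absorbance loss and residual % bound cluster, versus protein alone.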

Test [2] deals with H1N1 (influenza A/New Caledonia/20/99). In words: microbe, parasite or virus in culture. The test is classed as cell-based. Particulars: H1N1, A549, 48 h.

The term IC50 denotes the concentration that inhibits the measured activity by half.

As to `CC1(C)CCc2sc(NC(=O)c3ccccc3)c(C(=O)O)c21` [Compound #37, 2-Benzamido-4,4-dimethyl-5,6-dihydrocyclopenta[b]thiophene-3-carboxylic acid], the concentration for half-maximal inhibition (IC50) in the test with UXF 1138 stood at 9420 nM. Further, in test [1], the “Residual cluster bound at end of experiment (Percentage Absorbance 458 nm at time zero)” value is reported as 37% (11%), the “Time (in minutes) to achieve 50% loss of bound cluster (Absorbance 458 nm)” value was 75 (60) minutes and the “Stabiliser or destabiliser of Fe-S cluster binding by CISD3 Gene Product (Miner2)” value (“Stabiliser or destabiliser” for short) is recorded as “Stabilisers”. Moreover, in test [2], the IC50 amounted to 196 nM.

For `CC1(C)Cc2c(sc(NC(=O)c3ccc(N4CCOCC4)cc3)c2C(=O)O)C(C)(C)C1` [Compound #36, 5,5,7,7-Tetramethyl-2-[(4-morpholinobenzoyl)amino]-4,6-dihydrobenzothiophene-3-carboxylic acid], the IC50 in the test on UXF 1138 came to 988 nM. In test [1], the “Residual cluster bound at end of experiment (Percentage Absorbance 458 nm at time zero)” value is 39% (11%), the “Time (in minutes) to achieve 50% loss of bound cluster (Absorbance 458 nm)” value is given as 80 (60) minutes and the “Stabiliser or destabiliser” value is “Stabilisers”. In test [2], the midpoint of inhibition, the IC50, lay at 40.1 nM.

For `COC1CN(c2ccc(C(=O)Nc3sc4c(c3C(=O)O)CC(C)(C)CC4(C)C)cc2)C1` [Compound #58, 2-[[4-(3-Methoxyazetidin-1-yl)benzoyl]amino]-5,5,7,7-tetramethyl-4,6-dihydrobenzothiophene-3-carboxylic acid], the half-inhibitory concentration (IC50) with UXF 1138 turned out to be 819 nM. In addition, in test [1], the “Residual cluster bound at end of experiment (Percentage Absorbance 458 nm at time zero)” value is given as 44% (11%), the “Time (in minutes) to achieve 50% loss of bound cluster (Absorbance 458 nm)” value is reported as 125 (60) minutes and the “Stabiliser or destabiliser” value is reported as “Stabilisers”. The half-maximal inhibitory concentration (IC50) in test [2] amounted to 0.9 nM.
